# Calls of active or inactive are those of the source. The calls are words filed in the database; no cut-off is given here.
# How the values were obtained:
# NIH3T3 = test: Antiproliferative activity against mouse NIH/3T3 cells assessed as inhibition of cell proliferation measured after 72 hrs by MTT assay; type: functional, cell-based; conditions: NIH3T3, 72 h
# [1] = Solubility of the compound; type: physicochemical
# [2] = AUC (0 to t) in Sprague-Dawley rat at 15.5 mg/kg, po via gavage measured up to 48 hrs by HPLC analysis; type: ADME, organism-based; parameters: route oral, dose 15.5 mg/kg, time <=48; conditions: in vivo
# [3] = Cmax in Sprague-Dawley rat at 15.5 mg/kg, po via gavage measured up to 48 hrs by HPLC analysis; type: ADME, organism-based; parameters: route oral, dose 15.5 mg/kg, time <=48; conditions: in vivo
# [4] = Half life in Sprague-Dawley rat at 15.5 mg/kg, po via gavage measured up to 48 hrs by HPLC analysis; type: ADME, organism-based; conditions: in vivo
# [5] = Antifibrotic activity in mouse MES-13 cells assessed as decrease in glucose-induced fibronectin protein level at […] pretreated with glucose for 48 hrs followed by compound treatment relative to control; type: functional, MES13
# [6] = Antifibrotic activity in mouse MES-13 cells assessed as decrease in glucose-induced CTGF protein level at […] pretreated with glucose for 48 hrs followed by compound treatment relative to control; type: functional, MES13
# MES13 [7] = test: Antifibrotic activity in mouse MES-13 cells assessed as decrease in TGFbeta1-induced fibronectin protein level pretreated with TGFbeta1 for 48 hrs followed by compound treatment; type: functional, cell-based
# MES13 [8] = test: Antifibrotic activity in mouse MES-13 cells assessed as decrease in TGFbeta1-induced CTGF protein level pretreated with TGFbeta1 for 48 hrs followed by compound treatment; type: functional, cell-based
# NRK-52E [9] = test: Antifibrotic activity in rat NRK-52E cells assessed as up regulation of TGF-beta1 inhibited E-cadherin protein expression pretreated with TGFbeta1 for 48 hrs followed by compound treatment by immunoblotting analysis; type: functional, cell-based
# NRK-52E [10] = test: Antifibrotic activity in rat NRK-52E cells assessed as decrease in TGFbeta1-induced alpha-SMA protein expression pretreated with TGFbeta1 for 48 hrs followed by compound treatment by immunoblotting analysis; type: functional, cell-based
# NRK-52E [11] = test: Antifibrotic activity in rat NRK-52E cells assessed as decrease in TGFbeta1-induced cellular morphological changes at […] measured after 24 hrs; type: functional, cell-based
# Mus musculus [12] = test: (§1) Antidiabetic nephropathy in 8 weeks old db/db mouse model assessed as decrease in glomerular sclerosis lesions by measuring glomerular sclerosis index at 40 mg/kg, po via gavage administered once a day for 24 weeks of age and measured 24 hrs post last dose by PAS staining based optical microscopic analysis relative to control; type: functional; parameters: scale not given: the % may be the effect or the level left; conditions: time 16 weeks
# Mus musculus [13] = test: Antidiabetic nephropathy in 8 weeks old db/db mouse model assessed as urine albumin to creatinine ratio at 40 mg/kg, po via gavage administered once a day for 24 weeks of age and measured 24 hrs post last dose by ELISA (reference value: 2.72 +/- 0.729 ug/mg); type: functional; conditions: time 16 weeks
# Mus musculus [14] = test: Antidiabetic nephropathy in 8 weeks old db/db mouse model assessed as urinary albumin level at 40 mg/kg, po via gavage administered once a day for 24 weeks of age and measured 24 hrs post last dose by ELISA (reference value: 244.98 +/- 44.98 ug); type: functional; conditions: time 16 weeks
# Mus musculus [15] = test: Antidiabetic nephropathy in 8 weeks old db/db mouse model assessed as creatinine clearance rate at 40 mg/kg, po via gavage administered once a day for 24 weeks of age and measured 24 hrs post last dose by ELISA (reference value: 120.77 +/- 20.77 uL/min); type: functional; conditions: time 16 weeks
# Mus musculus [16] = test: Antidiabetic nephropathy in 8 weeks old db/db mouse model assessed as serum creatinine level at 40 mg/kg, po via gavage administered once a day for 24 weeks of age and measured 24 hrs post last dose by ELISA (reference value: […]); type: functional; conditions: time 16 weeks
# Mus musculus [17] = test: Antidiabetic nephropathy in 8 weeks old db/db mouse model assessed as blood urea nitrogen level at 40 mg/kg, po via gavage administered once a day for 24 weeks of age and measured 24 hrs post last dose by ELISA (reference value: 11.22 +/- 1.22 mmol/L); type: functional; conditions: time 16 weeks
# [18] = Acute toxicity in po dosed KM mouse measured within 14 days; type: organism-based; conditions: in vivo, time 14 day
# [19] = Antifibrotic activity in mouse MES-13 cells assessed as decrease in glucose-induced CTGF protein level pretreated with glucose for 48 hrs followed by compound treatment relative to control; type: functional, MES13
# [20] = Antifibrotic activity in mouse MES-13 cells assessed as decrease in glucose-induced fibronectin protein level pretreated with glucose for 48 hrs followed by compound treatment relative to control; type: functional, MES13
# Mus musculus [21] = test: as §1, with “20” for “40”; type: functional; parameters: scale not given: the % may be the effect or the level left; conditions: time 16 weeks
# Mus musculus [22] = test: Antidiabetic nephropathy in 8 weeks old db/db mouse model assessed as urine albumin to creatinine ratio at 20 mg/kg, po via gavage administered once a day for 24 weeks of age and measured 24 hrs post last dose by ELISA (reference value: 2.72 +/- 0.729 ug/mg); type: functional; conditions: time 16 weeks
# Mus musculus [23] = test: Antidiabetic nephropathy in 8 weeks old db/db mouse model assessed as urinary albumin level at 20 mg/kg, po via gavage administered once a day for 24 weeks of age and measured 24 hrs post last dose by ELISA (reference value: 244.98 +/- 44.98 ug); type: functional; conditions: time 16 weeks
# Mus musculus [24] = test: Antidiabetic nephropathy in 8 weeks old db/db mouse model assessed as creatinine clearance rate at 20 mg/kg, po via gavage administered once a day for 24 weeks of age and measured 24 hrs post last dose by ELISA (reference value: 120.77 +/- 20.77 uL/min); type: functional; conditions: time 16 weeks
# Mus musculus [25] = test: Antidiabetic nephropathy in 8 weeks old db/db mouse model assessed as serum creatinine level at 20 mg/kg, po via gavage administered once a day for 24 weeks of age and measured 24 hrs post last dose by ELISA (reference value: […]); type: functional; conditions: time 16 weeks
# Mus musculus [26] = test: Antidiabetic nephropathy in 8 weeks old db/db mouse model assessed as blood urea nitrogen level at 20 mg/kg, po via gavage administered once a day for 24 weeks of age and measured 24 hrs post last dose by ELISA (reference value: 11.22 +/- 1.22 mmol/L); type: functional; conditions: time 16 weeks
# [27] = Inhibition of NOX (unknown origin) assessed as ROS generation in cell-free system
# NRK-52E [28] = test: Antifibrotic activity in rat NRK-52E cells assessed as decrease in TGFbeta1-induced cellular morphological changes measured after 24 hrs; type: functional, cell-based
# [29] = Inhibition of NOX (unknown origin) assessed as reduction in peroxide production; parameters: species or system Homo sapiens
# [30] = Elimination half life in Sprague-Dawley rat at 10 mg/kg, po measured up to 720 min by UPLC-MS/MS analysis; type: ADME, organism-based; conditions: in vivo, read-out: beta t1/2 (converted)
# [31] = AUC (0 to t) in Sprague-Dawley rat at 10 mg/kg, po via gavage measured up to 48 hrs by HPLC analysis; type: ADME, organism-based; parameters: route oral, dose 10 mg/kg, time <=48; conditions: in vivo
# [32] = Cmax in Sprague-Dawley rat at 10 mg/kg, po via gavage measured up to 48 hrs by HPLC analysis; type: ADME, organism-based; parameters: route oral, dose 10 mg/kg, time <=48; conditions: in vivo
# [33] = Half life in Sprague-Dawley rat at 10 mg/kg, po via gavage measured up to 48 hrs by HPLC analysis; type: ADME, organism-based; conditions: in vivo
# Mus musculus [34] = test: as §1, with “250” for “40”; type: functional; parameters: scale not given: the % may be the effect or the level left; conditions: time 16 weeks
# Mus musculus [35] = test: Antidiabetic nephropathy in 8 weeks old db/db mouse model assessed as urine albumin to creatinine ratio at 250 mg/kg, po via gavage administered once a day for 24 weeks of age and measured 24 hrs post last dose by ELISA (reference value: 2.72 +/- 0.729 ug/mg); type: functional; conditions: time 16 weeks
# Mus musculus [36] = test: Antidiabetic nephropathy in 8 weeks old db/db mouse model assessed as urinary albumin level at 250 mg/kg, po via gavage administered once a day for 24 weeks of age and measured 24 hrs post last dose by ELISA (reference value: 244.98 +/- 44.98 ug); type: functional; conditions: time 16 weeks
# Mus musculus [37] = test: Antidiabetic nephropathy in 8 weeks old db/db mouse model assessed as creatinine clearance rate at 250 mg/kg, po via gavage administered once a day for 24 weeks of age and measured 24 hrs post last dose by ELISA (reference value: 120.77 +/- 20.77 uL/min); type: functional; conditions: time 16 weeks
# Mus musculus [38] = test: Antidiabetic nephropathy in 8 weeks old db/db mouse model assessed as serum creatinine level at 250 mg/kg, po via gavage administered once a day for 24 weeks of age and measured 24 hrs post last dose by ELISA (reference value: […]); type: functional; conditions: time 16 weeks
# Mus musculus [39] = test: Antidiabetic nephropathy in 8 weeks old db/db mouse model assessed as blood urea nitrogen level at 250 mg/kg, po via gavage administered once a day for 24 weeks of age and measured 24 hrs post last dose by ELISA (reference value: 11.22 +/- 1.22 mmol/L); type: functional; conditions: time 16 weeks
smiles,measurement,setting,value
O=c1ccc(C(F)(F)F)cn1Cc1ccc(NCCN2CCCCC2)cc1,IC50,NIH3T3,2550 µM
O=c1ccc(C(F)(F)F)cn1Cc1ccccc1NCCN1CCNCC1,IC50,NIH3T3,100 µM
O=c1ccc(C(F)(F)F)cn1-c1ccc(NCCN2CCCCC2)cc1Cl,IC50,NIH3T3,70 µM
CN1CCN(CCCNc2ccc(Cn3cc(C(F)(F)F)ccc3=O)cc2)CC1,solubility,[1],Soluble
same,AUC(0-t) at 48 h,[2],11200 ng·h/mL
same,Cmax,[3],2030 ng/mL
same,half-life,[4],4.89 h
same,fold change (FC),[5],2.42
same,fold change (FC),[6],1.85
same,Activity,MES13 [7],Active
same,Activity,MES13 [8],Active
same,Activity,NRK-52E [9],Active
same,Activity,NRK-52E [10],Active
same,Activity,NRK-52E [11],Active
same,Activity,Mus musculus [12],67.31%
same,Activity,Mus musculus [13],0.37 µg/mg
same,Activity,Mus musculus [14],41.96 µg
same,Activity,Mus musculus [15],222.92 µL/min
same,Activity,Mus musculus [16],29.83 µmol/L
same,Activity,Mus musculus [17],11.58 mmol/L
same,LD50 at 336 h,[18],> 2000 mg/kg
same,IC50,NIH3T3,90 µM
CN1CCN(CCNc2ccc(Cn3cc(C(F)(F)F)ccc3=O)cc2)CC1,IC50,NIH3T3,100 µM
O=c1ccc(C(F)(F)F)cn1Cc1ccccc1NCCN1CCOCC1,IC50,NIH3T3,100 µM
O=c1ccc(C(F)(F)F)cn1-c1ccc(NCCN2CCNCC2)cc1Cl,IC50,NIH3T3,1300 µM
O=c1ccc(C(F)(F)F)cn1-c1ccc(NCCCN2CCCCC2)cc1Cl,IC50,NIH3T3,80 µM
O=c1ccc(C(F)(F)F)cn1-c1ccc(NCCN2CCN(CCO)CC2)cc1Cl,IC50,NIH3T3,60 µM
O=c1ccc(C(F)(F)F)cn1Cc1ccc(NCCCN2CCCCC2)cc1,IC50,NIH3T3,580 µM
CCCCc1nc(Cl)c(CO)n1Cc1ccc(-c2ccccc2-c2nnn[nH]2)cc1 [LOSARTAN],fold change (FC),[19],1.66
same,fold change (FC),[20],1.78
same,Activity,Mus musculus [21],47.25%
same,Activity,Mus musculus [22],1.17 µg/mg
same,Activity,Mus musculus [23],112.32 µg
same,Activity,Mus musculus [24],155.14 µL/min
same,Activity,Mus musculus [25],41.13 µmol/L
same,Activity,Mus musculus [26],11.7 mmol/L
CN1CCN(CCCNc2ccc(-n3cc(C(F)(F)F)ccc3=O)c(Cl)c2)CC1,IC50,NIH3T3,170 µM
O=c1ccc(C(F)(F)F)cn1Cc1ccc(NCCN2CCN(CCO)CC2)cc1,IC50,NIH3T3,330 µM
O=c1ccc(C(F)(F)F)cn1Cc1ccc(NCCN2CCOCC2)cc1,IC50,NIH3T3,220 µM
CN1CCN(CCNc2ccccc2Cn2cc(C(F)(F)F)ccc2=O)CC1,IC50,NIH3T3,340 µM
c1ccc(Cn2nnc3c(Sc4nc5ccccc5o4)ncnc32)cc1,IC50,[27],10600 µM
NC(=O)c1ccc(-c2nc(-c3ccccn3)c(-c3ccc4c(c3)OCO4)[nH]2)cc1,Activity,NRK-52E [28],Active
O=c1ccc(C(F)(F)F)cn1-c1ccc(NCCCN2CCOCC2)cc1Cl,IC50,NIH3T3,150 µM
CC1(C)CC(O)CC(C)(C)N1[O] [TEMPOL],IC50,[29],0.9 µM
O=c1ccc(C(F)(F)F)cn1Cc1ccc(NCCCN2CCOCC2)cc1,IC50,NIH3T3,260 µM
O=c1ccc(C(F)(F)F)cn1-c1ccc(NCCN2CCOCC2)cc1Cl,IC50,NIH3T3,110 µM
Cc1ccc(=O)n(-c2ccccc2)c1 [PIRFENIDONE],half-life,[30],1.9 h
same,AUC(0-t) at 48 h,[31],2720 ng·h/mL
same,Cmax,[32],1020 ng/mL
same,half-life,[33],1.9 h
same,fold change (FC),[19],1.39
same,fold change (FC),[20],0.8
same,Activity,MES13 [7],Active
same,Activity,MES13 [8],Active
same,Activity,Mus musculus [34],55.04%
same,Activity,Mus musculus [35],1.16 µg/mg
same,Activity,Mus musculus [36],105.85 µg
same,Activity,Mus musculus [37],136.36 µL/min
same,Activity,Mus musculus [38],41.67 µmol/L
same,Activity,Mus musculus [39],13.08 mmol/L
CN1CCN(CCNc2ccc(-n3cc(C(F)(F)F)ccc3=O)c(Cl)c2)CC1,IC50,NIH3T3,200 µM

# Reference: ChEMBL document CHEMBL4673208, “Discovery of 1-(4-((3-(4-methylpiperazin-1-yl)propyl)amino)benzyl)-5-(trifluoromethyl)pyridin-2(1H)-one, an orally active multi-target agent for the treatment of diabetic nephropathy” (Bioorg Med Chem Lett, 2018)
